# Assay results published in the supplement of paper PMC10307832.
# Tests used:
# Test in all cases: relative viability (nuclei count vs DMSO), 5 days (fraction); higher = more cells survive
# Alisertib + Olaparib = compound: COc1cc(Nc2ncc3c(n2)-c2ccc(Cl)cc2C(c2c(F)cccc2OC)=NC3)ccc1C(=O)O [Alisertib] + O=C(c1cc(Cc2n[nH]c(=O)c3ccccc23)ccc1F)N1CCN(C(=O)C2CC2)CC1 [Olaparib] (partner 8 µM)
# Outline: (§1)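 Each reported value is a median over duplicate plates. It expresses relative viability: treated-well nuclei count divided by vehicle-well nuclei count. Lung cancer cell lines in 1536-well plates were dosed by pin tool a day after seeding, alone with one drug or with a fixed anchor-drug dose plus five library-drug doses (not always all listed) in √10 steps, and nuclei were counted after 5 days.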
# Alisertib + Phenformin = compound: COc1cc(Nc2ncc3c(n2)-c2ccc(Cl)cc2C(c2c(F)cccc2OC)=NC3)ccc1C(=O)O [Alisertib] + N=C(N)NC(=N)NCCc1ccccc1 [Phenformin] (partner 250 µM)
# Outline: as §1
# Alisertib + Lapatinib = compound: COc1cc(Nc2ncc3c(n2)-c2ccc(Cl)cc2C(c2c(F)cccc2OC)=NC3)ccc1C(=O)O [Alisertib] + CS(=O)(=O)CCNCc1ccc(-c2ccc3ncnc(Nc4ccc(OCc5cccc(F)c5)c(Cl)c4)c3c2)o1 [Lapatinib] (partner 2 µM)
# Outline: as §1
# Alisertib + Trametinib = compound: COc1cc(Nc2ncc3c(n2)-c2ccc(Cl)cc2C(c2c(F)cccc2OC)=NC3)ccc1C(=O)O [Alisertib] + CC(=O)Nc1cccc(-n2c(=O)n(C3CC3)c(=O)c3c(Nc4ccc(I)cc4F)n(C)c(=O)c(C)c32)c1 [Trametinib] (partner 0.02 µM)
# Outline: as §1
Cell Line,relative viability (Alisertib + Olaparib; first compound 0.005 µM),relative viability (Alisertib + Olaparib; first compound 0.01581 µM),relative viability (Alisertib + Olaparib; first compound 0.05 µM),relative viability (Alisertib + Olaparib; first compound 0.1581 µM),relative viability (Alisertib + Olaparib; first compound 0.5 µM),relative viability (Alisertib + Phenformin; first compound 0.005 µM),relative viability (Alisertib + Phenformin; first compound 0.01581 µM),relative viability (Alisertib + Phenformin; first compound 0.05 µM),relative viability (Alisertib + Phenformin; first compound 0.1581 µM),relative viability (Alisertib + Phenformin; first compound 0.5 µM),relative viability (Alisertib + Lapatinib; first compound 0.005 µM),relative viability (Alisertib + Lapatinib; first compound 0.01581 µM),relative viability (Alisertib + Lapatinib; first compound 0.05 µM),relative viability (Alisertib + Lapatinib; first compound 0.1581 µM),relative viability (Alisertib + Lapatinib; first compound 0.5 µM),relative viability (Alisertib + Trametinib; first compound 0.005 µM),relative viability (Alisertib + Trametinib; first compound 0.01581 µM),relative viability (Alisertib + Trametinib; first compound 0.05 µM),relative viability (Alisertib + Trametinib; first compound 0.1581 µM),relative viability (Alisertib + Trametinib; first compound 0.5 µM)
NCI-H727,0.679,0.624,0.556,0.518,0.465,0.514,0.504,0.262,0.276,0.352,0.75,0.68,0.497,0.384,0.314,0.308,0.392,0.355,0.341,0.353
NCI-H1993,1.09,0.995,0.682,0.483,0.433,0.455,0.495,0.5,0.511,0.449,0.81,0.694,0.537,0.539,0.5,0.493,0.513,0.442,0.404,0.455
NCI-H1437,0.585,0.47,0.383,0.257,0.179,0.236,0.286,0.251,0.142,0.118,0.729,0.576,0.45,0.218,0.13,0.391,0.489,0.279,0.21,0.179
NCI-H596,0.779,0.773,0.627,0.522,0.254,0.675,0.875,0.759,0.822,0.393,,1,1.16,0.63,0.433,0.816,0.787,0.776,0.542,0.327
201T,0.823,0.803,0.711,0.361,0.33,0.38,0.435,0.441,0.238,0.256,0.94,1.06,1.05,0.954,0.458,0.732,0.707,0.707,0.679,0.278
NCI-H358,0.529,0.284,0.117,0.111,0.12,0.259,0.262,0.118,0.0826,0.0797,0.389,0.434,0.211,0.177,0.161,0.123,0.138,0.0961,0.0877,0.0818
NCI-H1650,0.813,0.61,0.16,0.163,0.204,0.38,0.381,0.167,0.137,0.141,0.768,0.222,0.203,0.175,0.228,0.558,0.565,0.295,0.145,0.191
LOU-NH91,0.89,0.871,0.63,0.464,0.399,0.582,0.668,0.508,0.372,0.32,0.773,0.784,0.731,0.484,0.361,0.783,0.751,0.663,0.513,0.425
HOP-62,0.361,0.328,0.134,0.132,0.0731,0.612,0.553,0.345,0.147,0.143,0.838,0.803,0.883,0.223,0.146,0.398,0.337,0.274,0.223,0.174
NCI-H1915,0.218,0.186,0.142,0.138,0.129,0.309,0.274,0.241,0.229,0.173,0.787,0.821,0.606,0.305,0.253,0.303,0.303,0.241,0.201,0.138
NCI-H3122,0.627,0.717,0.41,0.261,0.222,0.376,0.371,0.37,0.248,0.142,1.01,0.999,0.899,0.433,0.307,0.238,0.214,0.198,0.176,0.131
NCI-H1651,0.166,0.157,0.12,0.112,0.126,0.218,0.222,0.147,0.101,0.175,0.716,0.589,0.434,0.192,0.193,0.799,0.654,0.52,0.258,0.154
PC-14,0.23,0.225,0.13,0.0581,0.0485,0.481,0.453,0.363,0.0963,0.0647,0.402,0.31,0.329,0.184,0.099,0.757,0.56,0.385,0.234,0.0465
NCI-H647,0.367,0.278,0.086,0.0609,0.0531,0.456,0.336,0.168,0.0894,0.0773,0.801,0.62,0.275,0.085,0.058,0.358,0.493,0.228,0.159,0.113
SW 1573,0.486,0.294,0.209,0.136,0.115,0.371,0.256,0.178,0.113,0.0928,1.15,0.939,0.552,0.345,0.203,0.512,0.533,0.121,0.119,0.104
NCI-H661,0.735,0.562,0.397,0.355,0.357,0.267,0.288,0.271,0.246,0.29,0.519,0.439,0.323,0.342,0.279,0.514,0.547,0.442,0.341,0.338

Cell Line,relative viability (Alisertib + Olaparib; first compound 0.005 µM),relative viability (Alisertib + Olaparib; first compound 0.01581 µM),relative viability (Alisertib + Olaparib; first compound 0.05 µM),relative viability (Alisertib + Olaparib; first compound 0.1581 µM),relative viability (Alisertib + Olaparib; first compound 0.5 µM),relative viability (Alisertib + Phenformin; first compound 0.005 µM),relative viability (Alisertib + Phenformin; first compound 0.01581 µM),relative viability (Alisertib + Phenformin; first compound 0.05 µM),relative viability (Alisertib + Phenformin; first compound 0.1581 µM),relative viability (Alisertib + Phenformin; first compound 0.5 µM),relative viability (Alisertib + Lapatinib; first compound 0.005 µM),relative viability (Alisertib + Lapatinib; first compound 0.01581 µM),relative viability (Alisertib + Lapatinib; first compound 0.05 µM),relative viability (Alisertib + Lapatinib; first compound 0.1581 µM),relative viability (Alisertib + Lapatinib; first compound 0.5 µM),relative viability (Alisertib + Trametinib; first compound 0.005 µM),relative viability (Alisertib + Trametinib; first compound 0.01581 µM),relative viability (Alisertib + Trametinib; first compound 0.05 µM),relative viability (Alisertib + Trametinib; first compound 0.1581 µM),relative viability (Alisertib + Trametinib; first compound 0.5 µM)
SK-MES-1,0.594,0.614,0.351,0.192,0.168,0.643,0.684,0.502,0.38,0.146,0.468,0.508,0.411,0.263,0.219,0.525,0.556,0.603,0.468,0.183
NCI-H1792,0.425,0.384,0.138,0.0583,0.0651,0.299,0.253,0.107,0.13,0.0705,0.847,0.875,0.61,0.215,0.0684,0.413,0.43,0.291,0.0949,0.072
NCI-H1355,0.575,0.476,0.191,0.152,0.159,0.4,0.353,0.23,0.182,0.189,0.914,0.837,0.671,0.258,0.184,0.39,0.411,0.355,0.187,0.153
UMC-11,0.287,0.216,0.193,0.252,0.215,0.235,0.192,0.176,0.174,0.164,0.438,0.29,0.162,0.163,0.158,0.344,0.246,0.15,0.148,0.185
NCI-H2347,0.555,0.546,0.474,0.491,0.365,0.346,0.373,0.299,0.411,0.242,0.815,0.911,0.877,0.738,0.531,0.281,0.273,0.286,0.271,0.237
LCLC-97TM1,0.332,0.306,0.102,0.0999,0.0824,0.451,0.386,0.333,0.174,0.153,0.405,0.723,0.623,0.262,0.126,0.202,0.201,0.124,0.126,0.0987
EMC-BAC-2,0.452,0.356,0.291,0.294,0.214,0.389,0.343,0.27,0.245,0.197,0.764,0.813,0.671,0.267,0.236,0.839,0.681,0.439,0.347,0.304
NCI-H1975,0.68,0.627,0.347,0.234,0.163,0.405,0.375,0.265,0.176,0.137,0.78,0.808,0.457,0.234,0.174,0.303,0.33,0.195,0.241,0.169
BEN,0.983,0.917,0.295,0.269,0.341,0.283,0.299,0.233,0.207,0.184,0.707,0.585,0.261,0.203,0.221,1.02,0.976,0.435,0.286,0.409
NCI-H23,0.287,0.167,0.146,0.141,0.155,0.666,0.512,0.518,0.233,0.163,1.01,0.427,0.27,0.176,0.171,0.318,0.222,0.199,0.169,0.148
NCI-H520,0.317,0.244,0.217,0.18,0.249,0.552,0.395,0.275,0.318,0.2,0.76,0.449,0.276,0.258,0.242,0.499,0.429,0.35,0.232,0.213
CAL-12T,0.66,0.534,0.194,0.159,0.195,0.434,0.253,0.15,0.142,0.169,0.556,0.526,0.195,0.198,0.169,0.321,0.261,0.155,0.154,0.227
EPLC-272H,0.671,0.471,0.293,0.0899,0.116,0.251,0.238,0.284,0.101,0.12,0.756,0.612,0.846,0.152,0.112,0.258,0.278,0.275,0.179,0.158
NCI-H2405,0.715,0.787,0.794,0.351,0.251,0.366,0.46,0.371,0.28,0.247,1.03,0.873,0.932,0.295,0.272,0.614,0.559,0.575,0.418,0.217
HCC-15,0.689,0.444,0.191,0.165,0.145,0.401,0.313,0.178,0.108,0.1,0.746,0.671,0.392,0.122,0.109,0.356,0.286,0.175,0.122,0.113
RERF-LC-KJ,0.883,0.687,0.25,0.223,0.251,0.382,0.377,0.246,0.219,0.233,0.844,0.713,0.673,0.318,0.201,0.872,0.819,0.357,0.301,0.198
